Source: patent US10034886B2, “GLP-1 receptor modulators” (Celgene International II SÀRL, priority 2014, dated 2018)

These molecules were tested against T1, GLP-1R (Homo sapiens, UniProt P43220) (assay: EC20 GLP-1(9-36) PAM cAMP assay: dose response of compound in the presence of fixed concentration of GLP-1(9-36)). Details: GLP-1R CRE-bla CHO-K1 cells, compound dose response with fixed concentration of GLP-1(9-36), read-out: EC20 GLP-1(9-36) PAM EC50.
T1 construct: host or cells: GLP-1R CRE-bla CHO-K1 cells
T1 sequence (P43220 24-463): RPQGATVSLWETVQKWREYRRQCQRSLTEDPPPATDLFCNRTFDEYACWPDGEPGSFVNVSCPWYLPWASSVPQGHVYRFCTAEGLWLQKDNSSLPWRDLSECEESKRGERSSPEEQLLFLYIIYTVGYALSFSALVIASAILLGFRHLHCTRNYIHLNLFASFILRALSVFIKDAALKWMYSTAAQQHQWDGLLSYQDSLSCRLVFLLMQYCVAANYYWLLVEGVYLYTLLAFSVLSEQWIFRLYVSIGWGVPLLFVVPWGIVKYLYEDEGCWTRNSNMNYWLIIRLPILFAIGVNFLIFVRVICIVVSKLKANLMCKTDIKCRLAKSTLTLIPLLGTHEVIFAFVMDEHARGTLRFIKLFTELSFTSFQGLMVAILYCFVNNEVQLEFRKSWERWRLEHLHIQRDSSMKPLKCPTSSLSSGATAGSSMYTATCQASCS
T1 sequence (P01275 100-127 partner limits assumed): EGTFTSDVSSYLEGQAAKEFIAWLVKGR
Assay type: cell-based
Procedure, shortened: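 GLP-1R CRE-bla CHO-K1 cells treated 30 min at 37 °C with 12-point compound dose response plus fixed EC20 GLP-1(9-36), with IBMX, in HBSS/HEPES/0.1% BSA pH 7.4. Total cAMP measured by luminescent detection against standard curve; EC50 and Emax from non-linear regression.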

EC50 [nM] | SMILES
< 800 | CC[C@H]1CC[C@H](c2ccc(-c3cnc(-c4ccc(C[C@H](NC(=O)c5ccc(C(C)C)s5)C(=O)O)cc4)nc3)cc2)CC1 [Compound 1389]
800 to 2500 | CCc1ccc(/C=C\c2cnc(-c3ccc(C[C@H](NC(=O)c4ccc(C(C)(C)C)s4)C(=O)N[C@H](C)C(=O)O)cc3)nc2)cc1 [Compound 1277]
5000 to 10000 | C[C@@H](NC(=O)[C@H](Cc1ccc(-c2ncc(-c3ccc(SC4CC4)cc3)cn2)cc1)NC(=O)c1ccc(C(C)(C)C)s1)C(=O)O [Compound 1301]
< 800 | CCCc1ccc(-c2ccc(-c3cnc(-c4ccc(C[C@H](NC(=O)c5ccc(C(F)(F)F)cc5)C(=O)N5CC(C(=O)O)C5)cc4)nc3)c(F)c2)cc1 [Compound 1400]
< 800 | CCOc1ccc(-c2ccc(-c3cnc(-c4ccc(C[C@H](NC(=O)c5ccc(C(C)(C)C)s5)C(=O)N5CC(C(=O)O)C5)cc4)nc3)c(F)c2)cc1 [Compound 1330]
< 800 | CCCCc1ccc(-c2ccc(-c3cnc(-c4ccc(C[C@H](NC(=O)c5ccc(C(C)(C)C)s5)C(=O)N5CC(C(=O)O)C5)cc4)nc3)c(F)c2)cc1 [Compound 1226, (S)-1-(2-(5-(tert-butyl)thiophene-2-carboxamido)-3-(4-(5-(4′-butyl-3-fluoro-[1,1′-biphenyl]-4-yl)pyrimidin-2-yl)phenyl)propanoyl)azetidine-3-carboxylic acid]
< 800 | CCC[C@H]1CC[C@H](C2CCN(c3cnc(-c4ccc(C[C@H](NC(=O)c5ccc(C(C)(C)C)cc5)C(=O)N5CC(C(=O)O)C5)cc4)nc3)CC2)CC1 [Compound 1414]
2500 to 5000 | CC(C)(C)c1ccc(C(=O)N[C@@H](Cc2ccc(-c3ncc(-c4ccc([C@H]5CC[C@@H](C)CC5)cc4)cn3)cc2)C(=O)O)s1 [Compound 1357]
< 800 | COc1ccc(C2CCN(c3cnc(-c4ccc(CC(NC(=O)c5ccc(C(C)(C)C)s5)C(=O)N5CC(C(=O)O)C5)cc4)nc3)CC2)cc1 (stereo not drawn) [Compound 1489]
< 800 | CC(C)(C)c1ccc(C2CCN(c3cnc(-c4ccc(C[C@H](NC(=O)c5ccc(C(C)(C)C)s5)C(=O)N5CC(C(=O)O)C5)cc4)nc3)CC2)cc1 [Compound 1493]
800 to 2500 | CC(C)CCCOc1ccc(-c2cnc(-c3ccc(C[C@H](NC(=O)c4ccc(C(C)(C)C)nc4)C(=O)N4CC(C(=O)O)C4)cc3)nc2)cc1 [Compound 1231]
< 800 | CC[C@H]1CC[C@H](c2ccc(-c3cnc(-c4ccc(C[C@H](NC(=O)c5ccc(C(C)(C)C)s5)C(=O)O)cc4)nc3)c(F)c2)CC1 [Compound 1363]
2500 to 5000 | CC[C@H]1CC[C@H](c2ccc(-c3ccc(-c4ccc(C[C@H](NC(=O)c5ccc(C(C)(C)C)s5)C(=O)O)cc4)nc3)cc2)CC1 [Compound 1333, (S)-2-(5-(tert-butyl)thiophene-2-carboxamido)-3-(4-(5-(4-((1r,4r)-4-ethylcyclohexyl)phenyl)pyridin-2-yl)phenyl)propanoic acid]
5000 to 10000 | C[C@@H](NC(=O)[C@H](Cc1ccc(-c2ncc(N3CCN(CC4CCCCC4)C3=O)cn2)cc1)NC(=O)c1ccc(C(C)(C)C)s1)C(=O)O [Compound 1267]
< 800 | CC[C@H]1CC[C@H](c2ccc(-c3cnc(-c4ccc(C[C@H](NC(=O)c5ccc(C(C)(C)C)s5)C(=O)N[C@H](C(=O)O)[C@@H](C)O)cc4)nc3)cc2)CC1 [Compound 1327]
5000 to 10000 | C[C@@H](NC(=O)[C@H](Cc1ccc(-c2ncc(-c3ccc(-c4ccccc4)nc3)cn2)cc1)NC(=O)c1ccc(C(C)(C)C)s1)C(=O)O [Compound 1303]
< 800 | CCC[C@H]1CC[C@H](C2CCN(c3cnc(-c4ccc(C[C@H](NC(=O)c5ccc(C6(C)CC6)cc5)C(=O)N5CC(C(=O)O)C5)cc4)nc3)CC2)CC1 [Compound 1519]
< 800 | CC1CCC(C2CCN(c3cnc(-c4ccc(C[C@H](NC(=O)c5ccc(C(C)(C)C)s5)C(=O)N5CC(C(=O)O)C5)cc4)nc3)CC2)CC1 (stereo partly drawn) [Compound 1427]
2500 to 5000 | CCc1ccc(C(=O)N[C@@H](Cc2ccc(-c3ncc(-c4ccc(OCCCC(C)C)cc4)cn3)cc2)C(=O)N2CC(C(=O)O)C2)nc1 [Compound 1245]

SMILES | EC50 [nM]
CC[C@H]1CC[C@H](c2ccc(-c3cnc(-c4ccc(C[C@H](NC(=O)c5ccc(C(C)(C)C)s5)C(=O)N5C6CCC5C(C(=O)O)C6)cc4)nc3)cc2)CC1 (stereo partly drawn) [Compound 1321] | 800 to 2500

Same assay, conditions: dose response of compound in presence of fixed concentration of GLP-1(9-36), GLP-1R CRE-bla CHO-K1 cells, read-out: EC20 GLP-1(9-36) PAM EC50

SMILES | EC50 [nM]
CCCCCCCOc1ccc(-c2cnc(-c3ccc(C[C@H](NC(=O)c4ccc(C(C)(C)C)s4)C(=O)N[C@@H](CC(=O)O)C(=O)N4CCCC4)cc3)nc2)cc1 [Compound 528] | < 800
C/C=C/CCCOc1ccc(-c2cnc(-c3ccc(C[C@H](NC(=O)c4ccc(C(C)C)cc4)C(=O)NCCC(=O)O)cc3)nc2)cc1 [Compound 714] | 2500 to 5000
CCOc1cc(OC(F)(F)F)cc(-c2cnc(-c3ccc(C[C@H](NC(=O)c4ccc(C(C)(C)C)s4)C(=O)N[C@H](C)C(=O)O)cc3)nc2)c1F [Compound 1045] | 2500 to 5000
CCCCC(=O)c1ccc(-c2cnc(-c3ccc(C[C@H](NC(=O)c4ccc(C(C)(C)C)s4)C(=O)N[C@H](C)C(=O)O)cc3)nc2)c(C)c1 [Compound 1014] | 5000 to 10000
CCCCCCCOc1ccc(-c2cnc(-c3ccc(C[C@@H](NC(=O)c4ccc(C(C)(C)C)cc4)C(=O)N[C@H](C)C(=O)O)cc3)nc2)cc1 [Compound 437] | < 800
CCCCCCCOc1ccc(-c2cnc(-c3ccc(C[C@H](NC(=O)c4ccc(C(C)(C)C)s4)C(=O)N[C@H](CCN)C(=O)O)cc3)nc2)cc1 [Compound 411] | 800 to 2500
CCCCCCCOc1ccc(-c2cnc(-c3ccc(C[C@H](NC(=O)c4ccc(C(C)(C)C)cc4)C(=O)N4C[C@H](N(C)C)C[C@H]4C(=O)O)cc3)nc2)cc1 [Compound 622] | 800 to 2500
CCc1ccc(/C=C/c2cnc(-c3ccc(C[C@H](NC(=O)c4ccc(C(C)(C)C)s4)C(=O)N4CCC[C@H]4C(=O)O)cc3)nc2)cc1 [Compound 1126] | 800 to 2500
CC[C@H]1CC[C@H](c2ccc(-c3cnc(-c4ccc(C[C@H](NC(=O)c5ccc(C(C)(C)C)s5)C(=O)N[C@@H](C)C(=O)O)cc4)nc3)cc2)CC1 [Compound 1067] | 800 to 2500
CCCCCCCOc1ccc(-c2cnc(-c3ccc(C[C@H](NC(=O)c4ccc(C(C)(C)C)cc4)C(=O)NCC(=O)NCCC(=O)O)cc3)nc2)cc1 [Compound 445] | < 800
CCCCCCCOc1ccc(-c2cnc(-c3ccc(C[C@H](NC(=O)c4ccc(CC)cn4)C(=O)N4CC(C(=O)O)C4)cc3)nc2)cc1 [Compound 1106] | 2500 to 5000
C[C@@H](NC(=O)[C@H](Cc1ccc(-c2ncc(-c3ccc(-c4cccc(F)c4)cc3)cn2)cc1)NC(=O)c1ccc(C(C)(C)C)s1)C(=O)O [Compound 1134] | 800 to 2500
CC(C)Sc1ccc(-c2cnc(-c3ccc(C[C@H](NC(=O)c4ccc(C(C)(C)C)s4)C(=O)N[C@H](C)C(=O)O)cc3)nc2)cc1 [Compound 1035] | 800 to 2500
CCCCCCCOc1ccc(-c2cnc(-c3ccc(C[C@H](NC(=O)c4ccc(C(C)(C)C)s4)C(=O)NC(C(=O)O)C(O)c4cscn4)cc3)nc2)cc1 (stereo partly drawn) [Compound 903] | 5000 to 10000
CCCCCCCOc1ccc(-c2cnc(-c3ccc(C[C@H](NC(=O)c4ccc(N5CCCC5)cc4)C(=O)N[C@@H](C)C(=O)O)cc3)nc2)cc1 [Compound 870] | 800 to 2500
CCCCCCCOc1ccc(-c2cnc(-c3ccc(C[C@H](NC(=O)c4ccc(C(C)(C)C)c(OC)c4)C(=O)N[C@H](C)C(=O)O)cc3)nc2)cc1 [Compound 837] | < 800
CCCCCCCOc1ccc(-c2cnc(-c3ccc(C[C@H](NC(=O)c4ccc(C(C)(C)C)cc4)C(=O)NC(Cc4ccc(Cl)cc4)C(=O)O)cc3)nc2)cc1 (stereo partly drawn) [Compound 564] | 800 to 2500
CCCCCCCOc1ccc(-c2cnc(-c3ccc(C[C@H](NC(=O)c4ccc(C(C)(C)C)s4)C(=O)N[C@@H](CC(=O)NS(C)(=O)=O)C(=O)O)cc3)nc2)cc1 [Compound 523] | < 800
CC(C)c1cccc(-c2cnc(-c3ccc(C[C@H](NC(=O)c4ccc(C(C)(C)C)s4)C(=O)N[C@H](C)C(=O)O)cc3)nc2)c1 [Compound 1033] | 5000 to 10000
CC(C)(C)c1ccc(C(=O)N[C@@H](Cc2ccc(-c3ncc(-c4ccc(OCC5CC5)cc4)cn3)cc2)C(=O)NCCC(=O)O)cc1 [Compound 684] | 5000 to 10000
CC1CCC(c2ccc(-c3cnc(-c4ccc(C[C@H](NC(=O)c5ccc(C(C)(C)C)s5)C(=O)N[C@H](C)C(=O)O)cc4)nc3)cc2)CC1 (stereo partly drawn) [Compound 1145] | < 800
CCCCCCCOc1ccc(-c2cnc(-c3ccc(C[C@H](NC(=O)c4ccc(C(C)(C)C)cc4)C(=O)N4C[C@H](OC(C)(C)C)C[C@H]4C(=O)O)cc3)nc2)cc1 [Compound 623] | 800 to 2500
CCCCCCCOc1ccc(-c2cnc(-c3ccc(C[C@H](NC(=O)c4ccc(C(C)(C)C)cc4)C(=O)N[C@H](CCCCN)C(=O)O)cc3)nc2)cc1 [Compound 466] | 800 to 2500
CC(C)(C)c1ccc(C(=O)N[C@@H](Cc2ccc(-c3ncc(-c4ccc(OC5CCCCC5)cc4)cn3)cc2)C(=O)NC(C(=O)O)C(O)c2ccccc2)s1 (stereo partly drawn) [Compound 938] | 5000 to 10000
CCCCCCCOc1ccc(-c2cnc(-c3ccc(C[C@H](NC(=O)c4ccc(C(C)(C)C)cc4)C(=O)NC(C(=O)O)c4cccs4)cc3)nc2)cc1 (stereo partly drawn) [Compound 455] | < 800

More lines, now with the values ahead:

EC50 [nM] | SMILES
< 800 | Cc1cc(C)cc(-c2ccc(-c3cnc(-c4ccc(C[C@H](NC(=O)c5ccc(C(C)(C)C)s5)C(=O)N5CC(C(=O)O)C5)cc4)nc3)c(F)c2)c1 [Compound 1191]
< 800 | CC(C)(C)c1ccc(C(=O)N[C@@H](Cc2ccc(-c3ncc(-c4ccc(C5CCC6(CC5)OCCO6)cc4)cn3)cc2)C(=O)N2CC(C(=O)O)C2)s1 [Compound 1186]
< 800 | CC[C@H]1CC[C@H](c2ccc(-c3cnc(-c4ccc(C[C@H](NC(=O)c5ccc(C(C)(C)C)nc5)C(=O)N5CC(C(=O)O)C5)cc4)nc3)cc2)CC1 [Compound 1163]
